Measurements: patent US10030027B2, “Soluble guanylate cyclase stimulators” (MERCK SHARP & DOHME CORP., priority 2015, dated 2018)

Experiments:
[1] = target: human recombinant sGC enzyme (Homo sapiens (Human), UniProt Q02108+Q02153); assay: Size Exclusion Chromatography (SEC) competition binding assay using [3H] Ex-77B as the radioligand; conditions: [3H] Ex-77B radioligand, 24 hours at 37° C.
Method in brief: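 Recombinant human sGC binding measured by competition against tritiated Ex-77B radioligand, with non-specific binding defined by 1 μM unlabeled Ex-77B.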

sGC α1/β1 heterodimer = sGC α1/β1 heterodimer (Homo sapiens (Human), UniProt Q02108+Q02153); assay: Cell-based sGC functional assay (cyclic GMP assay for sGC activator: CASA assay); design: % Activation: concentration or dose not given beside the values; conditions: CHO-K1/sGC cells; for Emax: CHO-K1, activity expressed as percentage of compound A (standard), read-out: % Activation; for EC50: inflection point, 4P fit, read-out: IP
Method in brief: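 CHO-K1 cells stably expressing human sGC α1/β1 were pre-incubated 30 min at 25° C with or without 1 μM DETA-NO, then exposed to compound for 1 hr at 37° C with 0.5 mM IBMX and 2.5% DMSO final. Intracellular cGMP was measured by HTRF, expressed as % of reference sGC-HDA maximum; inflection point and maximum fold induction came from 4-parameter fits.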

| Ki [1] | Emax (sGC α1/β1 heterodimer) | EC50 (sGC α1/β1 heterodimer) | % Activation (sGC α1/β1 heterodimer; activity expressed as percentage of compound A (standard)) | SMILES |
| --- | --- | --- | --- | --- |
| 0.073 nM | 108% | 1480 nM | – | CC1(c2cccc(C(=O)O)n2)C(=O)Nc2nc(-c3nn(Cc4ccccc4F)c4cc(Cl)ccc34)nc(N)c21 (centres unmarked) [Example 255A, 6-{4-Amino-2-[6-chloro-1-(2-fluorobenzyl)-1H-indazol-3-yl]-5-methyl-6-oxo-6,7-dihydro-5H-pyrrolo[2,3-d]pyrimidin-5-yl}picolinic acid] |
| 0.099 nM | 109% | 203 nM | – | C[C@@]1(c2ccc(CCC(=O)O)cc2)C(=O)Nc2nc(-c3nn(Cc4ccccc4F)c4ncc(F)cc34)nc(N)c21 [Example 23B, (S)-3-(4-{4-amino-2-[5-fluoro-1-(2-fluorobenzyl)-1H-pyrazolo[3,4-b]pyridin-3-yl]-5-methyl-6-oxo-6,7-dihydro-5H-pyrrolo[2,3-d]pyrimidin-5-yl}phenyl)propanoic acid] |
| 1.7 nM | 79% | 445 nM | – | CC1(c2cn(CC3(C(=O)O)CC3)nn2)C(=O)Nc2nc(-c3nn(CCC(F)(F)C(F)(F)F)c4cc(Cl)ccc34)nc(N)c21 (centres unmarked) [Example 32B, 1-[(4-{4-amino-2-[6-chloro-1-(3,3,4,4,4-pentafluorobutyl)-1H-indazol-3-yl]-5-methyl-6-oxo-6,7-dihydro-5H-pyrrolo[2,3-d]pyrimidin-5-yl}-1H-1,2,3-triazol-1-yl)methyl]cyclopropanecarboxylic acid] |
| 0.039 nM | 109% | 1800 nM | – | C[C@@]1(c2ccc(CCC(=O)NCC(=O)O)cc2)C(=O)Nc2nc(-c3nn(Cc4ccccc4F)c4ncccc34)nc(N)c21 [Example 100B, (S)-(3-(4-{4-Amino-2-[1-(2-fluorobenzyl)-1H-pyrazolo[3,4-b]pyridin-3-yl]-5-methyl-6-oxo-6,7-dihydro-5H-pyrrolo[2,3-d]pyrimidin-5-yl}phenyl)propanoyl)glycine] |
| 0.095 nM | 100% | 1760 nM | – | CC(C)(CCc1coc(C2(C)C(=O)Nc3nc(-c4nn(Cc5ncccc5F)c5cc(Cl)ccc45)nc(N)c32)n1)C(=O)O (centres unmarked) [Example 207B, 4-{2-[4-amino-2-{6-chloro-1-[(3-fluoropyridin-2-yl)methyl]-1H-indazol-3-yl}-5-methyl-6-oxo-6,7-dihydro-5H-pyrrolo[2,3-d]pyrimidin-5-yl]-1,3-oxazol-4-yl}-2,2-dimethyl-butanoic acid] |
| 0.092 nM | 108% | 1340 nM | – | CC1(c2ccc(CC(=O)O)cc2)C(=O)Nc2nc(-c3nn(Cc4ccccc4F)c4ncccc34)nc(N)c21 (centres unmarked) [Example 114A, (4-{4-Amino-2-[1-(2-fluorobenzyl)-1H-pyrazolo[3,4-b]pyridin-3-yl]-5-methyl-6-oxo-6,7-dihydro-5H-pyrrolo[2,3-d]pyrimidin-5-yl}phenyl)acetic acid] |
| 0.167 nM | 103% | 111 nM | – | CC(C)(Cc1csc([C@]2(C)C(=O)Nc3nc(-c4nn(Cc5cccc(F)c5)c5ncccc45)nc(N)c32)n1)C(=O)O [Example 149A, (S)-3-(2-{4-amino-2-[1-(3-fluoro-benzyl)-1H-pyrazolo [3,4-b]pyridin-3-yl]-5-methyl-6-oxo-6,7-dihydro-5H-pyrrolo[2,3-d]pyrimidin-5-yl}-1,3-thiazol-4-yl)-2,2-dimethyl-propanoic acid] |
| 0.031 nM | 118% | 120 nM | – | CC(C)(Cc1coc(C2(C)C(=O)Nc3nc(-c4nn(CC5CCCCC5)c5ncccc45)nc(N)c32)n1)C(=O)O (centres unmarked) [Example 152A, 3-(2-{4-amino-2-[1-(cyclohexyl-methyl)-1H-pyrazolo[3,4-b]pyridin-3-yl]-5-methyl-6-oxo-6,7-dihydro-5H-pyrrolo[2,3-d]pyrimidin-5-yl}-1,3-oxazol-4-yl)-2,2-dimethyl-propanoic acid] |
| 0.125 nM | 113% | 221 nM | – | CC(C)(Cc1coc(C2(C)C(=O)Nc3nc(-c4nn(CC5CCCCC5)c5cc(Cl)ccc45)nc(N)c32)n1)C(=O)O (centres unmarked) [Example 159A, 3-(2-{4-amino-2-[6-chloro-1-(cyclohexylmethyl)-1H-indazol-3-yl]-5-methyl-6-oxo-6,7-dihydro-5H-pyrrolo[2,3-d]pyrimidin-5-yl}-1,3-oxazol-4-yl)-2,2-dimethyl-propanoic acid] |
| 0.092 nM | – | 113 nM | 148.2% | CC1CCC(Cn2nc(-c3nc(N)c4c(n3)NC(=O)C4(C)c3nc(CC(C)(C)C(=O)O)co3)c3ccccc32)CC1 (single isomer, unassigned) [Example 231AA, 3-{2-[4-amino-5-methyl-2-{1-[-4-methylcyclo-hexylmethyl]-1H-indazol-3-yl}-6-oxo-6,7-dihydro-5H-pyrrolo[2,3-d]pyrimidin-5-yl]-1,3-oxazol-4-yl}-2,2-dimethyl-propanoic acid] |
| 0.146 nM | – | 3630 nM | – | CC1(c2cccc(-c3nn[nH]n3)n2)C(=O)Nc2nc(-c3nn(Cc4ccccc4F)c4cc(Cl)ccc34)nc(N)c21 (single isomer, unassigned) [Example 253A, 5-[6-(2H-tetrazol-5-yl)pyridin-2-yl]-4-amino-2-[6-chloro-1-(2-fluorobenzyl)-1H-indazol-3-yl]-5-methyl-5,7-dihydro-6H-pyrrolo[2,3-d] pyrimidin-6-one] |
| 0.052 nM | 120% | 220 nM | – | CC(C)(Cc1coc(C2(C)C(=O)Nc3nc(-c4nn(Cc5cccc(F)c5F)c5cc(F)ccc45)nc(N)c32)n1)C(=O)O (centres unmarked) [Example 200A, 3-(2-{4-amino-2-[1-(2,3-difluoro-benzyl)-6-fluoro-1H-indazol-3-yl]-5-methyl-6-oxo-6,7-dihydro-5H-pyrrolo[2,3-d]pyrimidin-5-yl}-1,3-oxazol-4-yl)-2,2-dimethyl-propanoic acid] |
| 0.111 nM | 117% | 137 nM | – | CC(C)(Cc1nc(C2(C)C(=O)Nc3nc(-c4nn(Cc5ccccc5F)c5cc(Cl)ccc45)nc(N)c32)co1)C(=O)O (centres unmarked) [Example 128A, 3-(4-{4-amino-2-[6-chloro-1-(2-fluorobenzyl)-1H-indazol-3-yl]-5-methyl-6-oxo-6,7-dihydro-5H-pyrrolo[2,3-d]pyrimidin-5-yl}-1,3-oxazol-2-yl)-2,2-dimethylpropanoic acid] |
| 0.094 nM | 112% | 278 nM | – | CC(C)(Cc1csc([C@]2(C)C(=O)Nc3nc(-c4nn(Cc5cccc(F)c5F)c5cc(Cl)ccc45)nc(N)c32)n1)C(=O)O [Example 181A, (S)-3-(2-{4-amino-2-[6-chloro-1-(2,3-difluorobenzyl)-1H-indazol-3-yl]-5-methyl-6-oxo-6,7-dihydro-5H-pyrrolo[2,3-d]pyrimidin-5-yl}-1,3-thiazol-4-yl)-2,2-dimethyl-propanoic acid] |
| 0.095 nM | 99.5% | 609 nM | – | CC(C)(Cc1csc([C@]2(C)C(=O)Nc3nc(-c4nn(Cc5ccccc5F)c5cc(Cl)ccc45)nc(N)c32)n1)c1nn[nH]n1 [Example 238A, (S)-4-amino-2-[6-chloro-1-(2-fluorobenzyl)-1H-indazol-3-yl]-5-methyl-5-{4-[2-methyl-2-(2H-tetrazol-5-yl)propyl]-1,3-thiazol-2-yl}-5,7-dihydro-6H-pyrrolo[2,3-d] pyrimidin-6-one] |
